Source: patent publication EP0464206A1, “DRUG FOR IMPROVING BRAIN FUNCTION” (DAIICHI PHARMACEUTICAL CO., LTD., priority 1989, dated 1990)

Legend:
[1] = test system: patients, who suffered from cerebrovascular dementia or Alzheimer's type senile dementia with Parkinson's disease as a complication; assay: Clinical administration of DBcAMP by intravenous drip infusion to dementia patients; type: in vivo; conditions: for Side effect / Progress after administration and evaluation (symptom/ condition): 300 mg/day intravenous drip infusion for 8 hours
Protocol: 300 mg of sodium N⁶-2'-0-dibutyryladenosine-3',5'-cyclic phosphate (hereinafter, abbreviated as DBcAMP) was dissolved in a saline and administered to five patients, who suffered from cerebrovascular dementia or Alzheimer's type senile dementia with Parkinson's disease as a complication, by intravenous drip infusion for approximately 8 hours per day continuously.
These patients gave no response to a call and their intellectual level was decreased. […] Therefore, it was recognized that these patients suffered from serious dementia.

Acute toxicity in mice = conditions: in vivo, iv; mouse, intravenously injected; read-out: LD₅₀
Protocol: (§1) DBcAMP was intravenously injected into rats and mice to thereby examine the acute toxicity thereof. As a result, LD₅₀ of this compound to rat was 459 mg/kg while that to mouse was 545 mg/kg.

Acute toxicity in rats = conditions: in vivo, iv; rat, intravenously injected; read-out: LD₅₀
Protocol: The cAMP derivative of formula (I) and a salt thereof were administered to rats in order to examine the acute toxicities of these compounds.
as §1

[2] = Test 2: patient five, Cerebrovascular dementia

With `CCCC(=O)Nc1ncnc2c1ncn2[C@@H]1O[C@@H]2COP(=O)(O)O[C@H]2[C@H]1OC(=O)CCC` [DBcAMP, sodium N⁶-2'-0-dibutyryladenosine-3',5'-cyclic phosphate] the Side effect ([1]; Test 1: patient three, Alzheimer's type dementia) was “None”, the “Progress after administration and evaluation (symptom/ condition)” value (shortened to “Progress”) [1, 2] was “Showed "Yes" or "No" for simple question by shaking head 1 week after the administration. No speech but groan. Remarkable improvement in symptoms caused by a decline in brain function, compared before the administration” and the Side effect [1, 2] was “None”. The “Progress” value ([1]; Test 3: patient four, Cerebrovascular dementia (with Parkinson's disease)) was “Groaned in night from the second day of the administration, after a year's silence. Groaning became larger thereafter. Improvement in various symptoms caused by a decline in brain function”, the Side effect ([1]; Test 3: patient four, Cerebrovascular dementia) was “None” and the “Progress” value ([1]; Test 4: patient two, Alzheimer's type dementia (with Parkinson's disease)) was “Answered to call 1 week after the administration. Soliloquized in night. Remarkable improvement in symptoms caused by a decline in brain function”. The Side effect ([1]; Test 4: patient two, Alzheimer's type dementia) was “None”, the Side effect ([1]; Test 5: patient one, Cerebrovascular dementia, multiple cerebral infarct) was “None” and the “symptoms of the complicated Parkinson's disease” value ([1]; five patients, 300 mg/day intravenous drip infusion) was “disappearance of oily skin and reduced myosclerosis”. For the same compound, the LD50 (Acute toxicity in mice) was 545 mg/kg and the LD50 (Acute toxicity in rats) was 459 mg/kg.
